Data as given in patent US20180103668A1, “CYCLOHEXANECARBOXYLIC ACIDS FOR SELECTIVE TASTE MASKING” (INTERNATIONAL FLAVORS & FRAGRANCES INC., priority 2015, published 2018).

Experiments:
[1] = Sour taste-masking effect; settings: 10 ppm in water; scale 0 to 10: 0=total masking, 2=intense masking, 5=moderate masking, 8=weak masking, 10=no masking; same in both lactic acid and citric acid
Procedure: (§1) A series of cyclohexanecarboxylic acid solutions in the following were prepared (10 ppm in water):
Lactic acid solution (0.09% by weight in water) and citric acid solution (0.07% by weight in water) were prepared and used, respectively, to evaluate the sour taste-masking effect of cyclohexanecarboxylic acids, which is expressed using an intensity scale of 0 to 10, where 0=total masking, 2=intense masking, 5=moderate masking, 8=weak masking and 10=no masking.

[2] = Bitter taste-masking effect; settings: for Intensity Score (bitter taste-masking effect): 10 ppm in water, caffeine 0.07%, scale 0 to 10: 0=total masking, 2=intense masking, 5=moderate masking, 8=weak masking, 10=no masking; for bitter taste-masking effect (in words): 10 ppm, caffeine solution 0.07%
Procedure: as §1
Caffeine solution (0.07% by weight in water) was prepared and used to evaluate the bitter taste-masking effect of cyclohexanecarboxylic acids, which is expressed using an intensity scale of 0 to 10, where 0=total masking, 2=intense masking, 5=moderate masking, 8=weak masking and 10=no masking.

Compound	Intensity Score (sour taste-masking effect) [1]	Intensity Score (bitter taste-masking effect) [2]	bitter taste-masking effect (in words) [2]
O=C(/C=C/c1ccc(O)c(O)c1)O[C@@H]1[C@H](O)C[C@@](O)(C(=O)O)C[C@H]1OC(=O)/C=C/c1ccc(O)c(O)c1 [Formula IV, (1S,3R,4R,5R)-3,4-bis[[3-(3,4-dihydroxyphenyl)-1-oxo-2-propenyl]oxy]-1,5-dihydroxy-cyclohexanecarboxylic acid]	8	2	particularly intense and lasting bitter taste-masking effect
O=C(/C=C/c1ccc(O)c(O)c1)OC1C[C@@](O)(C(=O)O)C[C@@H](OC(=O)/C=C/c2ccc(O)c(O)c2)[C@@H]1O (stereo partly drawn) [Formula V, (1α,3R,4α,5R)-3,5-bis[[3-(3,4-dihydroxyphenyl)-1-oxo-2-propen-1-yl]oxy]-1,4-dihydroxy-cyclohexanecarboxylic acid]	8	3	particularly intense and lasting bitter taste-masking effect
O=C(/C=C/c1ccc(O)c(O)c1)O[C@H]1[C@H](O)C[C@](O)(C(=O)O)C[C@H]1OC(=O)/C=C/c1ccc(O)c(O)c1 [Formula VI, (1R,3R,4S,5R)-3,4-bis[[3-(3,4-dihydroxyphenyl)-1-oxo-2-propen-1-yl]oxy]-1,5-dihydroxy-cyclohexanecarboxylic acid]	8	2	particularly intense and lasting bitter taste-masking effect
